Measured values from patent US20240252506A1 (Hoffmann-La Roche Inc., priority 2021, published 2024).
≈ marks a conversion by molar mass, not a printed value.

Tested on: Escherichia coli ATCC 25922
Test: Minimal Inhibitory Concentration (MIC) determination, broth microdilution (CLSI M07-A10)
Assay type: cell-based
Settings: Escherichia coli, ATCC25922, strain Escherichia coli ATCC 25922, 18-24 hours at 35±2° C., lowest concentration for complete growth inhibition (no visible growth), read-out: Escherichia coli growth inhibition MIC
Method in brief: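 Broth microdilution per CLSI M07-A10; compounds in 2-fold serial dilutions; inoculum from 0.5 McFarland suspension diluted 1:200 in broth. Incubated 18-24 h at 35±2° C in ambient air; MIC (μg/mL) taken as lowest concentration giving no visible growth.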

MIC [µg/mL]	SMILES
0.5	CN(CCn1nc2c(F)c3c(c(F)c2n1)CC(CN1CCC2(CC1)CN(c1cnc4c(n1)NC(=O)CO4)C(=O)O2)C3)C(=O)CN.O=CO [Example 165, 2-Amino-N-[2-[4,8-difluoro-6-[[2-oxo-3-(3-oxo-4H-pyrazino[2,3-b][1,4]oxazin-6-yl)-1-oxa-3,8-diazaspiro[4.5]decan-8-yl]methyl]-6,7-dihydro-5H-cyclopenta[f]benzotriazol-2-yl]ethyl]-N-methyl-acetamide;formic acid]
0.5 (≈ 0.78 µM)	CN(C)CC(=O)NCCn1nnc2c(F)c3c(c(F)c21)CC(CN1CCC2(CC1)CN(c1cnc4c(n1)NC(=O)CO4)C(=O)O2)C3 (stereo not drawn) [Example 168, N-[2-[4,8-difluoro-6-[[2-oxo-3-(3-oxo-4H-pyrazino[2,3-b][1,4]oxazin-6-yl)-1-oxa-3,8-diazaspiro[4.5]decan-8-yl]methyl]-6,7-dihydro-5H-cyclopenta[f]benzotriazol-1-yl]ethyl]-2-(dimethylamino)acetamide]
1 (≈ 1.64 µM)	CN[C@H](C)C(=O)NCc1nc2cc3c(c(F)c2o1)CC(CN1CCC2(CC1)CN(c1cnc4c(n1)NC(=O)CO4)C(=O)O2)C3 (stereo partly drawn) [Example 169, (2R)—N-[[8-Fluoro-6-[[2-oxo-3-(3-oxo-4H-pyrazino[2,3-b][1,4]oxazin-6-yl)-1-oxa-3,8-diazaspiro[4.5]decan-8-yl]methyl]-6,7-dihydro-5H-cyclopenta[f][1,3]benzoxazol-2-yl]methyl]-2-(methylamino)propanamide]
